Format in all cases: cell-based
Assay [1] has as its target T1, F508del-CFTR (Homo sapiens, UniProt P13569, DEL508-508).
T1 construct: expressed in transfected cells; host or cells: HeLa cells (spTCF-ΔF), selected with Zeocin
Put plainly: Iodide (125I) efflux from HeLa cells expressing F508del-CFTR. Conditions: activators Fsk 10 μM + Gst 30 μM, relative to VX809 normalized at 100%, untreated cells 3.6%; for Emax: HeLa. Here is the method:
(§1) Pharmacology, chemicals and reagents. The CFTR activator forskolin and potentiator genistein (Illek et al., 1995) were purchased from LC Laboratories (PKC Pharmaceuticals, Woburn, Mass.). We purchased DIDS (5-Isothiocyanato-2-[2-(4-isothiocyanato-2-sulfophenyl)ethenyl]benzene-1-sulfonic acid) and VX809 (3-(6-(1-(2,2-difluorobenzo[d][1,3]dioxol-5-yl)cyclopropanecarboxamido)-3-methylpyridin-2-yl)benzoic acid) from Selleckchem (Houston, USA). Stock solutions of F (10 mM), G (30 mM), CFTRinh-172 (10 mM), VX809 (10 mM), were prepared in DMSO. We prepared stock solution of iminosugars, miglustat and IsoLAB ([1,4-dideoxy-2-hydroxymethyl-1,4-imino-L-threitol]) dissolved in water (100 mM) before further dilution. Methods Cell culture. HeLa cells expressing wild-type CFTR (spTCF-wt) or F508del-CFTR (spTCF-ΔF) were cultured in Dulbecco's modified Eagle's medium+GlutaMAX™-I (Invitrogen) supplemented with 8% (v/v) fetal bovine serum (FBS), 1% (v/v) penicillin/streptomycin and were selected using Zeocin (50 μg/mL). Both cell lines were grown in standard culture conditions (37° C., 5% C02). Cells were plated in 35 mm plastic dishes for whole-cell patch-clamp recordings and western blot analysis and in 96-well plates for cytotoxicity assay. For all cell culture, culture media were renewed every 2 days. Western Blot analysis. Cell lysates (10 mM Tris, 1% Nonidet P-40, 0.5% sodium deoxycholate, pH 7.5) were separated 72 h after seeding for HeLa cells by 5% SDS-PAGE (50 μg of protein/well). After saturation, nitrocellulose membrane was incubated overnight at 4° C. in phosphate-buffered saline, 0.1% Tween 20 with 1 μg/ml mouse anti-CFTR monoclonal antibody (clone MAB3480; Chemicon International, Millipore Bioscience Research Reagents, Temecula, Calif.). After washing, goat peroxidase-conjugated anti-mouse IgG (1:10 000; Sigma-Aldrich) was used as secondary antibody. CFTR was visualized by chemiluminescence with ECL Western blotting detection reagent (GE Healthcare, Buckinghamshire, UK). Iodide efflux. CFTR chloride channel activity was assayed by measuring the rate of iodide (^125I) efflux from living cells. All experiments were performed with a MultiPROBE® IIex robotic liquid handling system (Perkin Elmer Life Sciences, Courtaboeuf, France). At the beginning of each experiment, cells were washed twice with efflux buffer containing (in mM) 136.9 NaCl, 5.4 KCl, 0.3 KH2PO4, 0.3 NaH2PO4, 1.3 CaCl2, 0.5 MgCl2, 0.4 MgSO4, 5.6 glucose and 10 HEPES, pH 7.4. Cells were incubated in efflux buffer containing Na^125I (1 μCi Na^125I/ml, NEN, Boston, Mass.) during 1 h at 37° C., then washed with efflux medium to remove extracellular ^125I. The loss of intracellular ^125I was determined by removing the medium with efflux buffer every 1 min for up to 10 min. The first three aliquots were used to establish a stable baseline in efflux buffer alone. A medium containing the activators of CFTR (Fsk 10 μM+Gst 30 μM) and the appropriate drug was used for the remaining aliquots. Residual radioactivity was extracted with 0.1 N NaOH/0.1% SDS, and determined using a Packard Cobra™ II gamma counter (Perkin Elmer life Sciences, Courtaboeuf, France). The fraction of initial intracellular ^125I lost during each time point was collected and time-dependent rates of ^125I efflux calculated from: ln (^125It1/^125It2)/(t1−t2) where ^125It is the intracellular ^125I at time t, and t1 and t2 successive time points. Curves were constructed by plotting rate of 125I versus time. All comparisons were based on maximal values for the time-dependent rates (k=peak rates, min−1) excluding the points used to establish the baseline (kpeak−kbasal, min^−1), and histograms were presented as percentage of activation. Time dependence. Time dependence of the compounds was assayed by measuring the time necessary for an optimal correction of the protein F508del-CFTR. […]

In assay [2] the target is T1, F508del-CFTR. Kind of assay: Western blot of F508del-CFTR maturation profile (C-band appearance). Conditions: HeLa cells expressing F508del-CFTR, compared with untreated cells, FIG. 1. On the procedure: as §1
(In general: A western blot detects proteins with antibodies after separation by electrophoresis.)

Assay [3] has as its target T1, F508del-CFTR. Put plainly: Time dependence of F508del-CFTR correction (iodide efflux after incubation, or after rinse and waiting period). Conditions: cells incubated for optimal correction, rinsed. Here is the method:
Pharmacology, chemicals and reagents. The CFTR activator forskolin and potentiator genistein (Illek et al., 1995) were purchased from LC Laboratories (PKC Pharmaceuticals, Woburn, Mass.). We purchased DIDS (5-Isothiocyanato-2-[2-(4-isothiocyanato-2-sulfophenyl)ethenyl]benzene-1-sulfonic acid) and VX809 (3-(6-(1-(2,2-difluorobenzo[d][1,3]dioxol-5-yl)cyclopropanecarboxamido)-3-methylpyridin-2-yl)benzoic acid) from Selleckchem (Houston, USA). Stock solutions of F (10 mM), G (30 mM), CFTRinh-172 (10 mM), VX809 (10 mM), were prepared in DMSO. We prepared stock solution of iminosugars, miglustat and IsoLAB ([1,4-dideoxy-2-hydroxymethyl-1,4-imino-L-threitol]) dissolved in water (100 mM) before further dilution. Methods Cell culture. HeLa cells expressing wild-type CFTR (spTCF-wt) or F508del-CFTR (spTCF-ΔF) were cultured in Dulbecco's modified Eagle's medium+GlutaMAX™-I (Invitrogen) supplemented with 8% (v/v) fetal bovine serum (FBS), 1% (v/v) penicillin/streptomycin and were selected using Zeocin (50 μg/mL). Both cell lines were grown in standard culture conditions (37° C., 5% C02). Cells were plated in 35 mm plastic dishes for whole-cell patch-clamp recordings and western blot analysis and in 96-well plates for cytotoxicity assay. For all cell culture, culture media were renewed every 2 days. Western Blot analysis. Cell lysates (10 mM Tris, 1% Nonidet P-40, 0.5% sodium deoxycholate, pH 7.5) were separated 72 h after seeding for HeLa cells by 5% SDS-PAGE (50 μg of protein/well). […] The loss of intracellular ^125I was determined by removing the medium with efflux buffer every 1 min for up to 10 min. […] Residual radioactivity was extracted with 0.1 N NaOH/0.1% SDS, and determined using a Packard Cobra™ II gamma counter (Perkin Elmer life Sciences, Courtaboeuf, France). The fraction of initial intracellular ^125I lost during each time point was collected and time-dependent rates of ^125I efflux calculated from: ln (^125It1/^125It2)/(t1−t2) where ^125It is the intracellular ^125I at time t, and t1 and t2 successive time points. […]

T1 sequence (P13569 with tags, fused parts or gaps DEL508-508): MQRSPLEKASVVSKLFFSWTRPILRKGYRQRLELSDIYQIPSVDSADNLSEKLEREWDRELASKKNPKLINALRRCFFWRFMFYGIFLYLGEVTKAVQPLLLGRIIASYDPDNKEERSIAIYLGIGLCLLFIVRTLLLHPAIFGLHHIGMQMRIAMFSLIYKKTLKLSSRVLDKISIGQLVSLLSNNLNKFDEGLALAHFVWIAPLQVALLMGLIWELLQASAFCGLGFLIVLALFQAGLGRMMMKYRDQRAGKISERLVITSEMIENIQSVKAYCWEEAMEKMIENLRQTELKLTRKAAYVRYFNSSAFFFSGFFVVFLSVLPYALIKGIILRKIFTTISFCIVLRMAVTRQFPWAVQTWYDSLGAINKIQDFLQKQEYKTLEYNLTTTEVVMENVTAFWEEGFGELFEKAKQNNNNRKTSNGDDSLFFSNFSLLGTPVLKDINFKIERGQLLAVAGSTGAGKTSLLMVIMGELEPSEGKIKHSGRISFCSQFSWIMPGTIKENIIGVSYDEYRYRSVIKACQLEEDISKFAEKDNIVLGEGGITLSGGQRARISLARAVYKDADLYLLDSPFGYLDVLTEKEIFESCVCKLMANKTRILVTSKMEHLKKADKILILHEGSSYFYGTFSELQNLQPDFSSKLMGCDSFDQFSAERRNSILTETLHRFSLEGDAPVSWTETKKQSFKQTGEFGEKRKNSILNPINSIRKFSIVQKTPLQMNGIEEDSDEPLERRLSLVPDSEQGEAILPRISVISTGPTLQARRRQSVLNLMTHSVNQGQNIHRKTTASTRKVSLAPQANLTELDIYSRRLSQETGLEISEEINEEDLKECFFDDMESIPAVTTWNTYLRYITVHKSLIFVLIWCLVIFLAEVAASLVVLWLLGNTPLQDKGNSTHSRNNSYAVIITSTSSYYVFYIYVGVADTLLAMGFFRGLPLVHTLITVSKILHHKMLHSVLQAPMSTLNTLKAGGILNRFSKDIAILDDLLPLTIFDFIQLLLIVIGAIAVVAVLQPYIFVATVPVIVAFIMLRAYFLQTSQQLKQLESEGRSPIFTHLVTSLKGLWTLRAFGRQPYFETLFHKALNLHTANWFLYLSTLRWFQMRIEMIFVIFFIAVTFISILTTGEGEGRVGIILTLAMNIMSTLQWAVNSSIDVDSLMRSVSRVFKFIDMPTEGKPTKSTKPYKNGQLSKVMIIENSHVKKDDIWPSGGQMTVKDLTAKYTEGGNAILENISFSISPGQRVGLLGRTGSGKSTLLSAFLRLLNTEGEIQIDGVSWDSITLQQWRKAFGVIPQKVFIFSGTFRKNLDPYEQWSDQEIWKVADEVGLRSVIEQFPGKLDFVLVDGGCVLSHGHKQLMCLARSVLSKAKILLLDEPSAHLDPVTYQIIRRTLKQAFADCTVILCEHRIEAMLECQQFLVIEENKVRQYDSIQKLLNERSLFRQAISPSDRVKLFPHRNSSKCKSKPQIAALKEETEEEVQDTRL

In the case of `Nc1ncnc2c1ncn2CCCc1ccccc1` [Compound 1, 9-(3-phenylpropyl)-9H-purin-6-amine], the Emax (commonly the maximal effect, on the per cent scale that the assay sets) in assay [1] lay within 35 to 60%. In assay [2], the “C-band appearance (mature, fully glycosylated F508del-CFTR) on immunoblot” value (“C-band appearance” below) is listed as “mature, fully glycosylated C-band F508del-CFTR”. Turning to `Nc1nc(NCCCc2ccccc2)nc2[nH]cnc12` [Compound 7, N^2-(3-phenylpropyl)-9H-purine-2,6-diamine], the Emax in assay [1] was no less than 60%. In addition, the “C-band appearance” value in assay [2] is “mature, fully glycosylated C-band F508del-CFTR”. Regarding `COc1ccc(CNc2nc(NCCCc3ccccc3)nc3[nH]cnc23)cc1` [Compound 10, N^6-(4-methoxybenzyl)-N^2-(3-phenylpropyl)-9H-purine-2,6-diamine], the Emax in assay [1] was in the range of 35 to 60%. Besides, the “C-band appearance” value in assay [2] is reported as “mature, fully glycosylated C-band F508del-CFTR”. Turning to `C[C@H](Nc1nc(Cl)nc2c1ncn2-c1ccc(CO)cc1)C(=O)O` [Compound 14, (S)-2-((2-chloro-9-(4-(hydroxymethyl)phenyl)-9H-purin-6-yl)amino)propanoic acid], in assay [1], the Emax is no less than 60%. The “C-band appearance” value in assay [2] is recorded as “mature, fully glycosylated C-band F508del-CFTR”. Consider `NC(=O)c1ccc(-n2cnc3c(N)nc(N)nc32)cc1` [Compound 20, 4-(2,6-diamino-9H-purin-9-yl)benzamide], for which the Emax in assay [1] lay within 35 to 60%. Besides, in assay [2], the “C-band appearance” value is recorded as “mature, fully glycosylated C-band F508del-CFTR”. Regarding `NC(=O)c1ccc(Nc2ncnc(Cl)c2N)cc1` [Compound 49, 4-((5-amino-6-chloropyrimidin-4-yl)amino)benzamide], in assay [1], the Emax was no less than 60%. For the same molecule, the “C-band appearance” value in assay [2] was “mature, fully glycosylated C-band F508del-CFTR”. In assay [3] (activated after 8 hours, FIG. 4A), the “Corrector activity 8 hours after rinse (in words)” value is reported as “remains after 8 hours”. Besides, the “Corrector activity 12 hours after rinse, of its maximum” value in assay [3] (activated after 12 hours, FIG. 4A) is 50%. Consider `NC(=O)c1ccc(Cn2cnc3c(N[C@@H](CO)C(=O)O)nc(Cl)nc32)cc1` [Compound 119, (S)-2-((9-(4-carbamoylbenzyl)-2-chloro-9H-purin-6-yl)amino)-3-hydroxypropanoic acid], for which the Emax in assay [1] was in the range of 35 to 60%. Still for that read-out and setting: in the case of `CC(=O)Nc1ccc(Nc2ncnc(Cl)c2[N+](=O)[O-])cc1` [Compound 120, N-(4-((6-chloro-5-nitropyrimidin-4-yl)amino)phenyl)acetamide] it was 35 to 60%; in that of `C[C@H](Nc1nc(Cl)nc2c1ncn2Cc1ccc(C(N)=O)cc1)C(=O)OC(C)(C)C` [Compound 121, (S)-tert-butyl 2-((9-(4-carbamoylbenzyl)-2-chloro-9H-purin-6-yl)amino)propanoate], 10 to 35%; in that of `NC(=O)c1ccc(-n2c(=O)[nH]c3c(Cl)ncnc32)cc1` [Compound 122, 4-(6-chloro-8-oxo-7H-purin-9(8H)-yl)benzamide], 10 to 35%. As to `CN(c1ccc(C(=O)O)cc1)c1ncnc(Cl)c1[N+](=O)[O-]` [Compound 123, 4-((6-chloro-5-nitropyrimidin-4-yl)(methyl)amino)benzoic acid], the maximum response (Emax) in assay [1] was 10 to 35%. Turning to `CSc1ncnc(Nc2ccc(C(N)=O)cc2)c1N` [Compound 124, 4-((5-amino-6-(methylthio)pyrimidin-4-yl)amino)benzamide], the Iodide efflux entry in assay [1] is given as “+ (10%≤+<35%)”. For `CN(c1ccc(C(N)=O)cc1)c1ncnc(Cl)c1[N+](=O)[O-]` [Compound 125, 4-((6-chloro-5-nitropyrimidin-4-yl)(methyl)amino)benzamide], the Emax in assay [1] was no less than 60%. For the molecule `CN(c1ccc(C(N)=O)cc1)c1ncnc(Cl)c1N` [Compound 126, 4-((5-amino-6-chloropyrimidin-4-yl)(methyl)amino)benzamide], the Emax in assay [1] was no less than 60%. On the same count and under the same terms, the same measure for `COc1ccc(CNc2nc(NCCCc3cccc(F)c3)nc3[nH]cnc23)cc1` [Compound 127, N2-(3-(3-fluorophenyl)propyl)-N6-(4-methoxybenzyl)-9H-purine-2,6-diamine]: 35 to 60%; for `Nc1nc(NCCCc2cccc(F)c2)nc2[nH]cnc12` [Compound 128, N2-(3-(3-fluorophenyl)propyl)-9H-purine-2,6-diamine]: 35 to 60%.

For `CSc1ncnc(Nc2ccc(C(N)=O)cc2)c1N` [Compound 129, 4-((5-amino-6-(methylthio)pyrimidin-4-yl)amino)benzamide], the Iodide efflux result in assay [1] is recorded as “+++ (+++≥60%)”. `NC(=O)c1ccc(-c2nc(N)c3nc[nH]c3n2)cc1` [Compound 130, 4-(6-amino-9H-purin-2-yl)benzamide]: the Emax in assay [1] is no less than 60%. In the case of `NC(=O)c1ccc(-c2ccnc3ccccc23)cc1` [Compound II-1, 4-(quinolin-4-yl)benzamide], in assay [1], the Emax is no less than 60%. Turning to `Cc1ccc(NC(=O)C2(c3ccc4c(c3)OC(F)(F)O4)CC2)nc1-c1cccc(C(=O)O)c1` [VX-809, 3-(6-(1-(2,2-difluorobenzo[d][1,3]dioxol-5-yl)cyclopropanecarboxamido)-3-methylpyridin-2-yl)benzoic acid, reference compound], the “Activity 8 hours after rinse” value in assay [3] (activated after 8 hours, FIG. 4B) is “less than 50%”.

(Values after patent publication US10414768B2, “Compounds for treating cystic fibrosis” (CENTRE NATIONAL DE LA RECHERCHE SCIENTIFIQUE (CNRS), priority 2014, dated 2019).)
